Columns and labels:
[1] = molecular target: T1, human DNA topoisomerase IIα (Homo sapiens, UniProt P11388); test: topo IIα-mediated kDNA decatenation and supercoiled pBR322 relaxation gel assays; HTS relaxation assay; cleavage assay (not a poison); format: biochemical
T1 construct: gene TOP2A

[2] = molecular target: T1, human DNA topoisomerase IIα; test: topo IIα cleavage assay (linear plasmid accumulation), HTS relaxation and decatenation assays; format: biochemical

T1 sequence (P11388 whole entry): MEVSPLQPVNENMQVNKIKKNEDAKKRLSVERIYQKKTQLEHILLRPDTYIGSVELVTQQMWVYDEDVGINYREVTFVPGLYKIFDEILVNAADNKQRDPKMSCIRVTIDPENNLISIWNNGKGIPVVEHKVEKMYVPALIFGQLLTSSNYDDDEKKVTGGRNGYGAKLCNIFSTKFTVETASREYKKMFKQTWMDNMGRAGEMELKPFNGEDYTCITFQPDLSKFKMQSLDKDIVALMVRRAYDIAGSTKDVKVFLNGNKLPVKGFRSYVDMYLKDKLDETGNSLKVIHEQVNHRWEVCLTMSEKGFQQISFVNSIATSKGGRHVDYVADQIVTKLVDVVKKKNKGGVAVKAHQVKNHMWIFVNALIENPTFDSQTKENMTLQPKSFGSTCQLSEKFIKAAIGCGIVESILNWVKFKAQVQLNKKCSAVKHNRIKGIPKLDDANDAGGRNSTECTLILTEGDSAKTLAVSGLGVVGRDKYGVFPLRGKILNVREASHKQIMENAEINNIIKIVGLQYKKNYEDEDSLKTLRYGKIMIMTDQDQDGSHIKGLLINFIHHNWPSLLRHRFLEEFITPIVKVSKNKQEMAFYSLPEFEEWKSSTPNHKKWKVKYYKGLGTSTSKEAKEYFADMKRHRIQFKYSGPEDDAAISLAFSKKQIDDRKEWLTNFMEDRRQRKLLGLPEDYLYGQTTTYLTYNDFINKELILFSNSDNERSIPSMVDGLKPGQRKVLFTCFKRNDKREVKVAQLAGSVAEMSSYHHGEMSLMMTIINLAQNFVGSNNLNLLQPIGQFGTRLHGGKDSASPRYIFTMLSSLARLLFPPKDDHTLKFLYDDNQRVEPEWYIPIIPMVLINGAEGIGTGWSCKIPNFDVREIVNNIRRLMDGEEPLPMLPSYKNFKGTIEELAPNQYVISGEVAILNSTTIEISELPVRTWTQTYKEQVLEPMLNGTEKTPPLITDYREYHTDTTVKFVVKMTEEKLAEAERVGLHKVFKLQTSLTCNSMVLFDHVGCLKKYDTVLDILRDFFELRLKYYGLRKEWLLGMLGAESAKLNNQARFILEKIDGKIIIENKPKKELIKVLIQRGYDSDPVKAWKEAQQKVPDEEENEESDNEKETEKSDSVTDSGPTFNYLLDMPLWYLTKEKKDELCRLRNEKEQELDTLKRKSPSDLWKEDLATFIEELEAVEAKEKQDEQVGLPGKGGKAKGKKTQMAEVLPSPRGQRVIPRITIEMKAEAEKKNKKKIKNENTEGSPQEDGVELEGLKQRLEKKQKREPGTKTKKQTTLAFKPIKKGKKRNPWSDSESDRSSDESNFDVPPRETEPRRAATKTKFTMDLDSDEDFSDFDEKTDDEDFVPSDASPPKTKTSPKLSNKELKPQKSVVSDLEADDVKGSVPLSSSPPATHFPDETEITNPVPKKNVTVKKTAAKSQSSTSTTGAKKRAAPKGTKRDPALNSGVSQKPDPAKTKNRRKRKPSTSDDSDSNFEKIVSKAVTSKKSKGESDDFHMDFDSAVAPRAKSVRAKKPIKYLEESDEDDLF

SMILES | inhibition at 50 µM [1] | inhibition at 50 µM [2]
Oc1ccccc1C=NNC(=S)NN=Cc1ccccc1O [compound 2, 1,5-bis(salicylidene)thiocarbohydrazide] | 56% | –
COc1cc([C@@H]2c3cc4c(cc3[C@@H](O[C@@H]3O[C@@H]5CO[C@@H](C)O[C@H]5[C@H](O)[C@H]3O)[C@H]3COC(=O)[C@H]23)OCO4)cc(OC)c1O [etoposide] | – | 70%
